The structures appear in SMILES notation.

The test deals with Methionine aminopeptidase 2 (Homo sapiens) (UniProt P50579). Briefly: Inhibition of MetAP2 (unknown origin).
Chain of Methionine aminopeptidase 2 (Homo sapiens) (P50579 whole entry, looked up): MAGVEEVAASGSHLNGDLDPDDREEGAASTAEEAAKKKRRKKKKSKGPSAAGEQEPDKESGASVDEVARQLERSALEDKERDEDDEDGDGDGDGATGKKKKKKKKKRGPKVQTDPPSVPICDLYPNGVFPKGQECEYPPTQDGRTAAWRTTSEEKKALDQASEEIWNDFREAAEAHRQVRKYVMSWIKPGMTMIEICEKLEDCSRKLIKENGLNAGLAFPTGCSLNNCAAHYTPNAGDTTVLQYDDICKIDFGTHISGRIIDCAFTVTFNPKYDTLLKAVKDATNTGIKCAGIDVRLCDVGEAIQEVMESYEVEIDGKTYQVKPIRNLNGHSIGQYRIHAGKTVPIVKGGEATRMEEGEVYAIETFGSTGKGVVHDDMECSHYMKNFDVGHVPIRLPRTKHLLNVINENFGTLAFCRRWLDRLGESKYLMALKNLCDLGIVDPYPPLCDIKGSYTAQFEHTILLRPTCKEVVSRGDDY
In turn, `NC(=O)c1[nH]c2ccc(Cl)cc2c1-c1ccc(C(=O)N2CCCC2)cc1` came in with an IC50 of 251 nM.

With `NC(=O)c1[nH]c2c(Cl)cccc2c1-c1ccccc1`, it took 7940 nM to reach half-maximal inhibition (IC50).

Molecule `NC(=O)c1[nH]c2cc(F)c(Cl)cc2c1-c1ccccc1` displayed an IC50 of 63 nM.

In the case of `CC(C)Oc1ccccc1-c1c(C(N)=O)[nH]c2cc(F)c(Cl)cc12`, inhibition was half-maximal at 5 nM (IC50).

On to `CN(C)c1ccc(-c2c(C(N)=O)[nH]c3ccc(Cl)cc23)cc1`, for which the IC50 worked out at 100 nM.

Take `NC(=O)c1[nH]c2ccc(Cl)c(F)c2c1-c1ccccc1`: 3980 nM corresponded to half-maximal inhibition (IC50).

As for `CN(C)Cc1ccc(-c2c(C(N)=O)[nH]c3ccc(Cl)cc23)cc1`, half-maximal inhibition (IC50) was put at 1000 nM.

The molecule `NC(=O)c1[nH]c2ccc(Cl)cc2c1-c1ccccc1` displayed a concentration for half-maximal inhibition (IC50) of 316 nM.

As to `NC(=O)c1[nH]c2ccc(Cl)cc2c1-c1ccc(Cl)cc1`, the IC50 was found to be 398 nM.

`NC(=O)c1[nH]c2ccc(Cl)cc2c1-c1ccc(N2CCOCC2)cc1` yielded an IC50 of 50 nM.

The molecule `CC(C)Oc1cc(N2CCNCC2)ccc1-c1c(C(N)=O)[nH]c2cc(F)c(Cl)cc12` yielded an IC50 of 3.2 nM.

Molecule `COc1ccccc1-c1c(C(N)=O)[nH]c2cc(F)c(Cl)cc12` registered a half-maximal inhibitory concentration (IC50) of 6.3 nM.

As for `CC(C)Oc1cc(N2CCNCC2)ccc1-c1c(C(N)=O)[nH]c2cc(F)c(F)cc12`, it took 2 nM to reach half-maximal inhibition (IC50).

Regarding `COc1ccccc1-c1c(C(N)=O)[nH]c2ccc(Cl)cc12`, the IC50 came to 100 nM.

With `CC(=O)c1[nH]c2ccc(Cl)cc2c1-c1ccccc1`, half-maximal inhibition (IC50) was put at 1580 nM.

With `NC(=O)c1[nH]c2ccccc2c1-c1ccccc1`, inhibition was half-maximal at 2510 nM (IC50).

Regarding `N#Cc1ccc(-c2c(C(N)=O)[nH]c3ccc(Cl)cc23)cc1`, half-maximal inhibition (IC50) required 501 nM.

Take `NC(=O)c1[nH]c2ccc(Cl)cc2c1-c1ccc(-c2ccn[nH]2)cc1`: the IC50 was determined as 251 nM.

The molecule `NC(=O)c1[nH]c2ncc(Cl)cc2c1-c1ccccc1` showed an IC50 of 1260 nM.

For `NC(=O)c1[nH]c2ccc(F)cc2c1-c1ccccc1`, the IC50 amounted to 631 nM.

For `NC(=O)c1[nH]c2ccc(Cl)cc2c1-c1ccccc1OC(F)(F)F`, 398 nM corresponded to half-maximal inhibition (IC50).

`CN1CCN(c2ccc(-c3c(C(N)=O)[nH]c4ccc(Cl)cc34)cc2)CC1` returned an IC50 of 25 nM.

`Cc1ccccc1-c1c(C(N)=O)[nH]c2ccc(Cl)cc12` showed an IC50 of 316 nM.

As for `O=C(O)c1[nH]c2ccc(Cl)cc2c1-c1ccccc1`, it took 20000 nM to reach half-maximal inhibition (IC50).

For `CC(C)Oc1ccccc1-c1c(C(N)=O)[nH]c2ccc(Cl)cc12`, the IC50 came out at 25 nM.

Turning to `NC(=O)c1[nH]c2c(F)cc(Cl)cc2c1-c1ccccc1`, the IC50 came to 631 nM.

As for `COc1ccc(-c2c(C(N)=O)[nH]c3ccc(Cl)cc23)cc1`, half-maximal inhibition (IC50) was put at 126 nM.

The molecule `NC(=O)c1[nH]c2cnccc2c1-c1ccccc1` showed an IC50 of 6310 nM.

As usually defined, the IC50 is the concentration that inhibits the measured activity by half. Low values mean higher potency, high ones lower potency.
